According to ChEMBL document CHEMBL5512683, “Discovery of Novel ERα and Aromatase Dual-Targeting PROTAC Degraders to Overcome Endocrine-Resistant Breast Cancer” (J Med Chem, 2024):
pIC50, pKi: −log10 of the molar value. Active and inactive are the calls of the source. No cut-off for these calls is given here.

How the values were obtained:
[1] = tested on: MCF7; experiment: Anti-proliferative activity against ERalpha positive human MCF7 cells incubated for 96 hrs by CCK8 assay; settings: MCF7, 96 h
[2] = Anti-proliferative activity against human MCF-10A cells incubated for 96 hrs by CCK8 assay; format: toxicity, cell-based
[3] = molecular target: T1, Aromatase (Homo sapiens, UniProt P11511); experiment: Inhibition of recombinant human aromatase using ARO substrate/NADP+ mixture by fluorescence assay
T1 sequence (P11511 whole entry): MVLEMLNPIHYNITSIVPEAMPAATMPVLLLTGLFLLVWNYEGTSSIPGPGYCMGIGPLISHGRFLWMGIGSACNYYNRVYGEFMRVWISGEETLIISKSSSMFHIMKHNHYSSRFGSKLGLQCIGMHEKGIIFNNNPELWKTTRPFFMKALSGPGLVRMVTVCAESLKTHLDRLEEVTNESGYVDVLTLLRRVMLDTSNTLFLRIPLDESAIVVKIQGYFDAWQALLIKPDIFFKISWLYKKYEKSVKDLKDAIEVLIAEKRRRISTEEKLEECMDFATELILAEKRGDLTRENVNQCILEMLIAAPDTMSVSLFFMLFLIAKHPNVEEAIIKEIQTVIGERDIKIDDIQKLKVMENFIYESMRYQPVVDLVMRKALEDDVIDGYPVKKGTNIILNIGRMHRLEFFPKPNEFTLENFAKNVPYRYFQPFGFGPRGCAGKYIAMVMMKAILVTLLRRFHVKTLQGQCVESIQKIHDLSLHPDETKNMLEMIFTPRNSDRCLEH

[4] = molecular target: T2, von Hippel-Lindau disease tumor suppressor/Aromatase (Homo sapiens, UniProt P11511+P40337); experiment: PROTAC activity at human ARO/VHL E3 ligase in human MCF-7 cells assessed as degradation of ARO at 1 uM incubated for 24 hrs by Western blot analysis; format: cell-based; settings: mcf7, 24 h
T2 sequence (P40337 whole entry, one chain of several): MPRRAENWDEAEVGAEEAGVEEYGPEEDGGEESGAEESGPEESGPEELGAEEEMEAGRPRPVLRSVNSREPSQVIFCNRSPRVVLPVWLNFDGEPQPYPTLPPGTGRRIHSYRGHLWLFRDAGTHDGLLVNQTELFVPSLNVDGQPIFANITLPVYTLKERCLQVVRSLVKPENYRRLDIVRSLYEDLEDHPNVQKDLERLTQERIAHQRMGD

[5] = molecular target: T2, von Hippel-Lindau disease tumor suppressor/Aromatase; experiment: PROTAC activity at human ARO/VHL E3 ligase in human MCF-7 cells assessed as degradation of ARO incubated for 24 hrs by Western blot analysis; format: cell-based; settings: mcf7, 24 h
[6] = tested on: MCF7; experiment: Antiproliferative activity against human resistant MCF7 cells harboring ERalpha Y537S mutant at LBD assessed as cell viability incubated for 96 hrs by CCK8 assay; settings: MCF7, 96 h
[7] = tested on: MCF7; experiment: Antiproliferative activity against human resistant MCF7 cells harboring ERalpha D538G mutant at LBD assessed as cell viability incubated for 96 hrs by CCK8 assay; settings: MCF7, 96 h
[8] = tested on: MCF7; experiment: Antiproliferative activity against human resistant MCF7 cells harboring EGFR assessed as cell viability incubated for 96 hrs by CCK8 assay; settings: MCF7, 96 h
[9] = molecular target: T2, von Hippel-Lindau disease tumor suppressor/Aromatase; experiment: PROTAC activity at human ARO/VHL E3 ligase in resistant human MCF-7 cells harboring EGFR assessed as degradation of ARO at 0.5 to 10 uM incubated for 24 hrs by Western blot analysis; format: cell-based; settings: mcf7, 24 h, dose 0.5-10 µM
[10] = tested on: MCF7; experiment: Reduction in ERS1 mRNA expression in resistant human MCF7 cells harboring EGFR at 5 uM by real-time quantitative polymerase chain reaction (RT-qPCR) analysis; format: functional, cell-based
[11] = tested on: MCF7; experiment: Reduction in MYC mRNA expression in resistant human MCF7 cells harboring EGFR at 5 uM by real-time quantitative polymerase chain reaction (RT-qPCR) analysis; format: functional, cell-based
[12] = tested on: MCF7; experiment: Reduction in ERS1 mRNA expression in resistant human MCF7 cells harboring ERalpha D538G mutant at 5 uM by real-time quantitative polymerase chain reaction (RT-qPCR) analysis; format: functional, cell-based
[13] = tested on: MCF7; experiment: Reduction in MYC mRNA expression in resistant human MCF7 cells harboring ERalpha D538G mutant at 5 uM by real-time quantitative polymerase chain reaction (RT-qPCR) analysis; format: functional, cell-based
[14] = tested on: MCF7; experiment: Reduction in ERS1 mRNA expression in resistant human MCF7 cells harboring ERalpha Y537S mutant at 5 uM by real-time quantitative polymerase chain reaction (RT-qPCR) analysis; format: functional, cell-based
[15] = tested on: MCF7; experiment: Reduction in MYC mRNA expression in resistant human MCF7 cells harboring ERalpha Y537S mutant at 5 uM by real-time quantitative polymerase chain reaction (RT-qPCR) analysis; format: functional, cell-based
[16] = tested on: MCF7; experiment: Reduction in ERS1 mRNA expression in resistant human MCF7 cells at 5 uM by real-time quantitative polymerase chain reaction (RT-qPCR) analysis; format: functional, cell-based
[17] = tested on: MCF7; experiment: Reduction in MYC mRNA expression in resistant human MCF7 cells at 5 uM by real-time quantitative polymerase chain reaction (RT-qPCR) analysis; format: functional, cell-based
[18] = molecular target: Estrogen receptor beta (Homo sapiens, UniProt Q92731); experiment: Binding affinity to human ERbeta assessed as inhibition constant incubated under dark condition for 2 hrs by competitive fluorometric binding assay
Sequence of Estrogen receptor beta (Q92731 whole entry): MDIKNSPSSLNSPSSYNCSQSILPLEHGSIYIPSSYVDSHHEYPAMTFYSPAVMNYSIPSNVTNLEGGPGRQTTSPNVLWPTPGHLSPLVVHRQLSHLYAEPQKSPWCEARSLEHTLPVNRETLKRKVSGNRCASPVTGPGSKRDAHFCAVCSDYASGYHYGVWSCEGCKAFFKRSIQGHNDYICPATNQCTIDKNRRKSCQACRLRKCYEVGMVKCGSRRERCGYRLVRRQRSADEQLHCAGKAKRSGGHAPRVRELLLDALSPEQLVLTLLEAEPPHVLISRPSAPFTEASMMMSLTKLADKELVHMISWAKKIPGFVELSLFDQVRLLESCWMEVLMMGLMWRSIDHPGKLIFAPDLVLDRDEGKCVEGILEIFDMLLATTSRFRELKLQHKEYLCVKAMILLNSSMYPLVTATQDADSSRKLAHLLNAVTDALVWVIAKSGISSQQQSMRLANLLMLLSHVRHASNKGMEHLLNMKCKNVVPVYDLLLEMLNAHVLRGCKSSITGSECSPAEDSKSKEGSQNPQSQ

[19] = molecular target: T2, von Hippel-Lindau disease tumor suppressor/Aromatase; experiment: PROTAC activity at human ARO/VHL E3 ligase in human MCF-7 cells assessed as degradation of ARO at 1 uM incubated for 24 hrs in presence of MG132 by Western blot analysis; format: cell-based; settings: mcf7, 24 h
[20] = tested on: MCF7; experiment: Induction of cell cycle arrest in human MCF7 cells assessed as accumulation of cells at G2/M phase at 5 uM incubated for 48 hrs by flow cytometry (reference value: 54.10%); format: functional
[21] = tested on: MCF7; experiment: Induction of degradation of MYC protein in human MCF7 cells at 0.5 to 5 uM by Western blot analysis; format: functional, cell-based; settings: dose 0.5-5 µM
[22] = tested on: MCF7; experiment: Induction of degradation of MYC protein in human MCF7 cells harboring ERalpha D538G mutant at 0.5 to 5 uM by Western blot analysis; format: functional, cell-based; settings: dose 0.5-5 µM
[23] = tested on: MCF7; experiment: Induction of degradation of MYC protein in human MCF7 cells harboring ERalpha Y537S mutant at 0.5 to 5 uM by Western blot analysis; format: functional, cell-based; settings: dose 0.5-5 µM
[24] = tested on: MCF7; experiment: Induction of degradation of MYC protein in human MCF7 cells harboring EGFR at 0.5 to 5 uM by Western blot analysis; format: functional, cell-based; settings: dose 0.5-5 µM
[25] = tested on: MCF7; experiment: Antitumor activity against human MCF7 cells xenografted in Balb/c mouse model assessed as tumor growth inhibition at 5 mg/kg, ip every other day measured upto 20 days; format: functional, organism-based; settings: time <= 20.0 day
[26] = Toxicity in Balb/c mouse xenografted with human MCF7 cells assessed as body weight loss at 5 mg/kg, ip every other day measured upto 20 days; format: organism-based; settings: in vivo, 480 h, time < 20 day
[27] = tested on: MCF7; experiment: In vivo PROTAC activity in ERalpha/VHL E3 ligase in human MCF7 cell xenografted in Balb/c mouse model assessed as reduction in ERalpha level in tumor at 5 mg/kg, ip every other day measured upto 20 days; format: functional, organism-based; settings: time <= 20.0 day
[28] = tested on: MCF7; experiment: In vivo PROTAC activity in aromatase/VHL E3 ligase in human MCF7 cell xenografted in Balb/c mouse model assessed as reduction in ARO level in tumor at 5 mg/kg, ip every other day measured upto 20 days; format: functional, organism-based; settings: time <= 20.0 day
[29] = tested on: MCF7; experiment: In vivo antitumor activity against human MCF7 cells xenografted in Balb/c mouse model assessed as reduction in number of Ki67 positive cells in tumor at 5 mg/kg, ip every other day measured upto 20 days; format: functional, organism-based; settings: time <= 20.0 day
[30] = Toxicity in Balb/c mouse xenografted with human MCF7 cells assessed as cellular morphology in heart at 5 mg/kg, ip every other day measured upto 20 days; format: organism-based; settings: in vivo, 480 h, time < 20 day
[31] = Toxicity in Balb/c mouse xenografted with human MCF7 cells assessed as cellular morphology in liver at 5 mg/kg, ip every other day measured upto 20 days; format: organism-based; settings: in vivo, 480 h, time < 20 day
[32] = Toxicity in Balb/c mouse xenografted with human MCF7 cells assessed as cellular morphology in spleen at 5 mg/kg, ip every other day measured upto 20 days; format: organism-based; settings: in vivo, 480 h, time < 20 day
[33] = Toxicity in Balb/c mouse xenografted with human MCF7 cells assessed as cellular morphology in kidney at 5 mg/kg, ip every other day measured upto 20 days; format: organism-based; settings: in vivo, 480 h, time < 20 day

| SMILES | pIC50 [1] | IC50 at 96 h [2] [nM] | pIC50 [3] | Activity [4] | Activity [5] | pIC50 [6] | pIC50 [7] | pIC50 [8] | Activity [10] | Activity [11] | Activity [12] | Activity [13] | Activity [14] | Activity [15] | further results |
| --- | --- | --- | --- | --- | --- | --- | --- | --- | --- | --- | --- | --- | --- | --- | --- |
| Cc1ncsc1-c1ccc([C@H](C)NC(=O)[C@@H]2C[C@@H](O)CN2C(=O)[C@@H](NC(=O)COCCOCCOc2ccc(N(CC(F)(F)F)S(=O)(=O)C3CC4OC3C(c3ccc(-n5ccnc5)cc3)=C4c3ccc(O)cc3)cc2)C(C)(C)C)cc1 (some centres not stated) | 6.46 | > 100000 | 6.49 | Active | Dose-Dependent Effect | 5.68 | 5.00 | 5.36 | inactive | Active | inactive | Active | inactive | Active | Activity [9]: Active; Activity [16]: inactive; Activity [17]: inactive |
| Cc1ncsc1-c1ccc([C@H](C)NC(=O)[C@@H]2C[C@@H](O)CN2C(=O)[C@@H](NC(=O)CCCCCOc2ccc(N(CC(F)(F)F)S(=O)(=O)C3CC4OC3C(c3ccc(-n5ccnc5)cc3)=C4c3ccc(O)cc3)cc2)C(C)(C)C)cc1 (some centres not stated) | 6.27 | > 100000 | 5.34 | Active | Dose-Dependent Effect | 5.64 | 6.51 | 7.12 | Active | Active | Active | Active | Active | Active | pKi [18]: < 4.10; Activity [19]: Not Active; Activity [20]: 66.31%; Activity [21]: Active; Activity [22]: inactive; Activity [23]: inactive; Activity [24]: inactive; Activity [25]: Active; Activity [26]: Non-Toxic; Activity [27]: Active; Activity [28]: Active; Activity [29]: Active; Activity [30]: Non-Toxic; Activity [31]: Non-Toxic; Activity [32]: Non-Toxic; Activity [33]: Non-Toxic |
